Experimental data taken from article PMC10423278, “Delivered complementation in planta (DCIP) enables measurement of peptide-mediated protein delivery efficiency in plants” (Communications Biology, 2023).
No end group written: not given here.

Experiments:
[1] = system: DCIP expressing N. benthamiana leaves; experiment: Delivered complementation in planta (DCIP), infiltrated leaf discs, confocal imaging of nuclear sfGFP/mCherry; type: cell-based, Nicotiana benthamiana; conditions: for DCIP delivery signal, statistical significance vs water infiltration control: N = 6, Kruskal–Wallis/Dunn
Description: The DCIP protocol involves transient expression of DCIP in N. benthamiana. 3 d.p.i., leaves are infiltrated with an aqueous solution of cargo that contains the GFP11 tag. Immediately after infiltration, the infiltrated leaves are either left intact or a leaf disc is excised from the infiltrated area and plated on pH 5.7 ½ MS. After a predetermined incubation time, the leaves are imaged on a confocal laser scanning microscope. For quantitative imaging, the resulting images are then automatically analyzed using Cell Profiler[30] for nuclear sfGFP and mCherry fluorescence (Fig. 1a). A detailed methodology is provided in the “Methods” section.
Three days after agroinfiltration, DCIP-expressing leaves were infiltrated with the treatment solutions. Unless otherwise stated, an 8 mm punch was then excised from the infiltrated area and plated, abaxial side up, onto ½ MS pH 5.7 agar plates. The plates were then left to incubate under ambient conditions for 4–5 h before imaging. For cold temperature treatment, after infiltration with ice-cold solutions of R9-GFP11 and disc excision, the leaf discs were plated onto ice-cold agar and immediately transferred to a 4 °C refrigerator for incubation. After incubation, the agar plates with leaf discs were kept on ice until the moment of imaging. For in situ incubation, leaves were simply infiltrated and the plant was returned to the growing chamber for incubation. All peptides were dissolved in sterile water and all recombinant proteins were dissolved in 10 mM Tris pH 7.4, 10 mM NaCl for infiltration.
Excised leaf discs were imaged on a Zeiss LSM880 laser scanning confocal microscope. Images for semi-quantitative analysis were collected using a ×20/1.0NA Plan-apochromat water immersion objective and larger field-of-views were collected using a ×5 objective. Leaf discs were mounted by sandwiching a droplet of water between the leaf disc and a #1.5 cover glass. BFP, sfGFP, mCherry, and chloroplast autofluorescence images were acquired by excitation with a 405, 488, 561, and 635 nm laser, respectively. The emission bands collected for BFP, sfGFP, mCherry, and autofluorescence were 410–529, 493–550, 578–645, and 652–728 nm, respectively. All images were collected such that the aperture was set to 1 Airy-unit in the mCherry channel. Images and profile plots were prepared for publication using Zen Blue software. Profile plots were smoothed by taking a moving window of three measurements and normalized to the maximum smoothed intensity for each color. For quantification experiments, z-stacks were acquired with the imaging depth set to capture the epidermal layer down to the point where mCherry nuclei could no longer be detected. z-stacks from four fields of view were acquired for every treatment condition. Quantitative image analysis and downstream processing was performed using Cell Profiler 3.0. […] Cell Profiler was then used to quantify the number, mCherry intensity, GFP intensity, and red (mCherry)/green (sfGFP) ratio of the projected nuclei.
Data obtained from Cell Profiler was processed using a script written in Python 3.9. Using the Cell Profiler data, GFP positive nuclei were counted using a Python script by setting a threshold defined as a one-tailed 99% confidence interval above the mean green/red ratio in the untreated control or water infiltration control of each experiment. […]

[2] = system: f-actin; experiment: cytoDCIP delivery-mediated actin labeling (Lifeact/f-actin scaffolding); type: cell-based, Nicotiana benthamiana
From the text: After confirming that recombinant proteins could be efficiently delivered into plant cells with R9 CPP, we asked if delivered proteins could subsequently mediate protein–protein interactions. Being able to mediate protein–protein interactions using delivered proteins could enable new technologies that alter plant physiology. Therefore, in a proof-of-concept experiment, we delivered the 1.9 kDa f-actin binding peptide, Lifeact[50], tagged with GFP11 and R9 (Fig. 6a) into cytoDCIP expressing N. benthamiana leaves. In this scheme, when Lifeact is internalized, GFP11 acts as a scaffold to tether cytoDCIP to actin filaments through the Lifeact/f-Actin interaction. […]
Excised leaf discs were imaged on a Zeiss LSM880 laser scanning confocal microscope. Images for semi-quantitative analysis were collected using a ×20/1.0NA Plan-apochromat water immersion objective and larger field-of-views were collected using a ×5 objective. […] For quantification experiments, z-stacks were acquired with the imaging depth set to capture the epidermal layer down to the point where mCherry nuclei could no longer be detected. z-stacks from four fields of view were acquired for every treatment condition. Quantitative image analysis and downstream processing was performed using Cell Profiler 3.0. […]

[3] = system: cytoDCIP-expressing N. benthamiana leaf; experiment: cytoDCIP nuclear localization of delivered AtWUS; type: cell-based, Nicotiana benthamiana; conditions: 140 µM, leaf disc, 6 h
From the text: After establishing the feasibility of using DCIP to assess recombinant protein delivery in intact leaves, we sought to examine R9-mediated delivery of the Arabidopsis plant morphogenic transcription factor, WUSCHEL (AtWUS), in N. benthamiana leaves. AtWUS was chosen as a candidate cargo due to its applications for somatic embryogenesis in plants and its high degree of molecular characterization[54],[55]. […] Because AtWUS is a transcription factor, we also expected to see GFP11-AtWUS-R9 localize to the nucleus without the SV40 NLS of DCIP. To test this, we infiltrated a cytoDCIP-expressing N. benthamiana leaf with 140 µM GFP11-AtWUS-R9. If the delivered AtWUS has active NLS activity, we would expect green fluorescence localized to only the nucleus and excess, uncomplemented mCherry-GFP1-10 to remain in the cytosol. […]
Excised leaf discs were imaged on a Zeiss LSM880 laser scanning confocal microscope. Images for semi-quantitative analysis were collected using a ×20/1.0NA Plan-apochromat water immersion objective and larger field-of-views were collected using a ×5 objective. […] For quantification experiments, z-stacks were acquired with the imaging depth set to capture the epidermal layer down to the point where mCherry nuclei could no longer be detected. z-stacks from four fields of view were acquired for every treatment condition. […]

[4] = system: downstream AtWUS genes; experiment: RT-qPCR of direct targets of AtWUS in treated seedlings; type: in vivo, Arabidopsis thaliana; conditions: 24 h
Description: The previous results in N. benthamiana motivated us to determine whether or not the delivered AtWUS is transcriptionally active. We treated 12-day-old Arabidopsis seedlings for 24 h with 1 µM GFP11-AtWUS-R9. A. thaliana was chosen as a model species due to the well-characterized AtWUS pathway in A. thaliana. Seedlings were subsequently harvested and subjected to RT-qPCR analysis for six known direct targets of AtWUS (Fig. 7d). […] Ectopic expression of AtWUS downregulates the expression of cell identity markers ARR6, AS2, KAN1/2 and YAB3 by binding directly to their promoters[56],[57], and upregulates the expression of its own negative regulator, CLV3[58]. […] In this second experiment, 3 µM of protein was also used due to apparent batch-to-batch variation of activity and lower purity of the recombinant protein (Supplemental Fig. S12b, c).
Arabidopsis (Col-0) seedlings were grown in 12-well culture plates with 8–10 seedlings per well in 1 mL of 1x MS media supplemented with 0.5% sucrose and 2.5 mM MES, pH 5.7. Seeds were sterilized by washing in 70% ethanol for 30 s followed by a 15-min incubation in 50% bleach supplemented with 0.5% Tween-20 and rinsed 5x with DI water. Sterilized seeds were stratified in plates at 4 °C for 3 days after plating. Seedlings were grown at 22 °C under 16-h photoperiods for 12 days. To treat seedlings, the liquid media in each well was replaced with control and WUSCHEL treatments. Control wells were refreshed with 1 mL of MS growth media. WUSCHEL proteins were prepared for use by dialysis into 10 mM MES pH 5.7 for 2 h before dilution to their final concentration. Treatment wells were refreshed with 1 mL of 1 or 3 μM of protein (R9-GFP11, GFP11-AtWUS-R9, GFP11-AtWUS) dissolved in MS growth media. […]
Total RNA was extracted from Arabidopsis seedlings using an RNeasy Plant Mini Kit (Qiagen). […] Relative gene expression was determined using the ddCt method[80] using SAND1 as the reference gene. Relative gene expression was determined from four biological pools each containing 8–10 seedlings. […]

`CC[C@H](C)[C@H](NC(=O)CNC(=O)[C@H](C)NC(=O)[C@H](C)NC(=O)[C@H](CC(N)=O)NC(=O)[C@@H](NC(=O)[C@H](Cc1ccc(O)cc1)NC(=O)[C@H](CCC(=O)O)NC(=O)[C@H](Cc1c[nH]cn1)NC(=O)[C@H](CC(C)C)NC(=O)[C@@H](NC(=O)[C@H](CCSC)NC(=O)[C@H](Cc1c[nH]cn1)NC(=O)[C@H](CC(=O)O)NC(=O)[C@H](CCCNC(=N)N)NC(=O)[C@H](CO)NC(=O)CNC(=O)[C@H](CO)NC(=O)CNC(=O)[C@H](CC(C)C)NC(=O)[C@H](Cc1ccc(O)cc1)NC(=O)[C@H](CCCCN)NC(=O)[C@H](CC(C)C)NC(=O)[C@@H](NC(=O)[C@H](CCCCN)NC(=O)[C@H](CCCCN)NC(=O)[C@H](Cc1ccccc1)NC(=O)[C@H](CC(C)C)NC(=O)[C@H](CCCCN)NC(=O)[C@@H](N)CCCCN)[C@@H](C)CC)C(C)C)C(C)C)C(=O)N[C@H](C(=O)O)[C@@H](C)O` [BP100-GFP11] was tested, and the “sfGFP complementation observed by confocal imaging (qualitative)” value ([1]; 100 μM peptide, 4–5 h post-infiltration) was “rare instances of successful delivery” and the “DCIP delivery signal, statistical significance vs water infiltration control” value ([1]; 100 μM, 4–5 h) was “no statistically significant signal”.

`C/C1=C/C(=O)O[C@@H]2C[C@@H](CC[C@H](C)/C=C\CC1)O[C@@](O)([C@@H]1CSC(=O)N1)C2` [LatB, latrunculin B, reference compound] was tested, and the “actin filaments on cotreatment with LatB” value ([2]; 25 µM LatB cotreated with GFP11-Lifeact-R9, 6 h) was “no actin filaments were observed”.

With “MGSSHHHHHHENLYFQSNARDHMVLHEYVNAAGITGGGGSGGGGSYFQSNAMGVADLIKKFESISKEEGIGSGSNGNSGSVSRRRRRRRRR* [GFP11-Lifeact-R9]” the “localization of sfGFP/mCherry signal in cytoDCIP leaves (actin filament labeling)” value ([2]; 120 µM, leaf discs, 6 h, pavement cells) was “robust labeling of actin filaments”.

RDHMVLHEYVNAAGIT [GFP11] was tested, and the “DCIP delivery signal, statistical significance vs water infiltration control” value ([1]; 100 μM, 4–5 h) was “no statistically significant signal”.

With “RKKRRQRRRGSGSRDHMVLHEYVNAAGIT [TAT-GFP11]” the “delivery efficiencies (percent GFP-positive nuclei)” value ([1]; 100 μM CPP-GFP11 conjugate, 4–5 h, N = 6) was 30–80% and the “delivery efficiency normalized to R9 CPP” value ([1]; 100 μM, 4–5 h, N = 6) was 0.87 times.

B1: GFP11-AtWUS: recombinant AtWUS with GFP11 tag, without R9 fusion, 38.5 kDa (plasmid 1BR9-AtWUSSTOP) (protein, UniProt Q9SB92 1-292, looked up)
Protein WUSCHEL: MEPPQHQHHHHQADQESGNNNNNKSGSGGYTCRQTSTRWTPTTEQIKILKELYYNNAIRSPTADQIQKITARLRQFGKIEGKNVFYWFQNHKARERQKKRFNGTNMTTPSSSPNSVMMAANDHYHPLLHHHHGVPMQRPANSVNVKLNQDHHLYHHNKPYPSFNNGNLNHASSGTECGVVNASNGYMSSHVYGSMEQDCSMNYNNVGGGWANMDHHYSSAPYNFFDRAKPLFGLEGHQEEEECGGDAYLEHRRTLPLFPMHGEDHINGGSGAIWKYGQSEVRPCASLELRLN
modifications: GFP11 tag
For B1, the “nuclear localization of delivered protein in cytoDCIP leaf” value [3] was “possessed nuclear localization activity”, the “CLV3 expression in GFP11-AtWUS-treated plants” value ([4]; 3 µM) was “CLV3 downregulation” and the “tested AtWUS target genes regulated in an expected manner, first experimental repeat” value ([4]; 3 µM, six genes, N = 4) was 3/6. For the same molecule, the “tested AtWUS target genes regulated in an expected manner, second experimental repeat” value ([4]; six genes, N = 4, repeat) was 1/6.
